This assay concerns the target fibroblast growth factor receptor 1 (FGFR1) (Homo sapiens, UniProt P11362). The assay can be described thus: cell-free kinase inhibition, caliper mobility shift assay, ATP at Km ([…]). Type of assay: biochemical.

As usually defined, the IC50 is the concentration that inhibits the measured activity by half.

Chain of fibroblast growth factor receptor 1 (FGFR1) (P11362 22-822): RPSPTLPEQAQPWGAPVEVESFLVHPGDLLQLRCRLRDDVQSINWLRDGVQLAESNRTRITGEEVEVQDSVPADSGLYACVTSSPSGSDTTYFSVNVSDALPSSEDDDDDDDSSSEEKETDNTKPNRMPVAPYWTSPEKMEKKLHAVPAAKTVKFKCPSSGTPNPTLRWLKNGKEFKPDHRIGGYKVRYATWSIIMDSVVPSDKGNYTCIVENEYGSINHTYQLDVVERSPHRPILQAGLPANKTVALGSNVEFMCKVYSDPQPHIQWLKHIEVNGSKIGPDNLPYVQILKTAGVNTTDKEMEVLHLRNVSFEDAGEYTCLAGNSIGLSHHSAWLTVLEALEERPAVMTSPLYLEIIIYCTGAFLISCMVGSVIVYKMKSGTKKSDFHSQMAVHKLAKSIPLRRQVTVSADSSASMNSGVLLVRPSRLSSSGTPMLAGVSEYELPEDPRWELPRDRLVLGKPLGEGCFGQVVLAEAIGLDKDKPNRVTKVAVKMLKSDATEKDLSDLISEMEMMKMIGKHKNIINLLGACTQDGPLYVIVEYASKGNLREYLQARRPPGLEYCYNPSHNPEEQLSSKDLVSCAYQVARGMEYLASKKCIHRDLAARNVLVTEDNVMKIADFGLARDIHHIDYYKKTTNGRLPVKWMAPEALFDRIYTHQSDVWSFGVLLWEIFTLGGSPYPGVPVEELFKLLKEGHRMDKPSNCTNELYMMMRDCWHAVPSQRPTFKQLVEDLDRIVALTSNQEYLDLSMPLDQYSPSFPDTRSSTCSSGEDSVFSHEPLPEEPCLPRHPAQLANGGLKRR

As for `CCOc1ccc(/C=C2\CC[C@@]3(C2=O)[C@@H](c2ccc(OCC)cc2)CN(C)[C@]32C(=O)c3cccc4cccc2c34)cc1` [G141], the IC50 was determined as 2700 ± 540 nM.

These data come from article PMC4819196, “A novel fibroblast growth factor receptor 1 inhibitor protects against cartilage degradation in a murine model of osteoarthritis” (Scientific Reports, 2016).
